According to patent EP2951180B1, “2,6,7,8 SUBSTITUTED PURINES AS HDM2 INHIBITORS” (Merck Sharp & Dohme Corp., priority 2013, dated 2014):

These molecules were tested against T1, HDM2 (Homo sapiens, UniProt Q00987) (assay: HDM2 FRET assay (inhibition of binding of FITC labeled p53-pocket peptide to HDM2)). Conditions: Table 21; read-out: FRET IC50.
T1 construct: Thioredoxin (N); made in house; host or cells: E. coli strain BL21(DE3)Rosetta
Method in brief: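 Final: 0.5 nM His-HDM2, 3 nM FITC peptide, 0.25 nM Tb anti-His Ab; PBS, 0.01% BSA, 0.01% Tween-20; 0.1% DMSO.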

T1 sequence (Q00987 17-125): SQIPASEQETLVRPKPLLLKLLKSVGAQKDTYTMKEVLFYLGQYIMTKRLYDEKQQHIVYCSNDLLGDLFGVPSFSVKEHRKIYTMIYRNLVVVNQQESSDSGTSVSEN

SMILES	IC50 [nM]
C=C(c1ccccc1)c1nc2nc(-c3noc(=O)[nH]3)nc(N[C@H](C)C3CCC3)c2n1C[C@H]1CC[C@H](C)CC1 [Example 21.13, 3-[6-{[(1R)-1-cyclobutylethyl]amino}-7-[(trans-4-methylcyclohexyl)methyl]-8-(1-phenylethenyl)-7H-purin-2-yl]-1,2,4-oxadiazol-5(4H)-one]	1.9
C[C@@H](Nc1nc(-c2noc(=O)[nH]2)nc2nc(C3=C(c4ccccc4)CCCC3)n(C[C@H]3CC[C@H](C)CC3)c12)C1CCC1 [Example 21.16, 3-[6-{[(1R)-1-cyclobutylethyl]amino}-7-[(trans-4-methylcyclohexyl)methyl]-8-(2-phenylcyclohex-1-en-1-yl)-7H-purin-2-yl]-1,2,4-oxadiazol-5(4H)-one]	12.2
C[C@@H](Nc1nc(C(=O)O)nc2nc(C3CCCCC3c3ccccc3)n(C[C@H]3CC[C@H](C)CC3)c12)C1CCC1 (stereo partly drawn) [Example 21.17, 6-{[(1R)-1-cyclobutylethyl]amino}-7-[(trans-4-methylcyclohexyl)methyl]-8-(2-phenylcyclohexyl)-7H-purine-2-carboxylic acid]	4.3
C[C@@H](Nc1nc(C(=O)O)nc2nc(C3=C(c4ccccc4)CCCC3)n(C[C@H]3CC[C@H](C)CC3)c12)C1CCC1 [Example 21.18, 6-{[(1R)-1-cyclobutylethyl]amino}-7-[(trans-4-methylcyclohexyl)methyl]-8-(2-phenylcyclohex-1-en-1-yl)-7H-purine-2-carboxylic acid]	6.5
C=C(c1nc2nc(-c3noc(=O)[nH]3)nc(N[C@H](C)C3CCC3)c2n1C[C@H]1CC[C@H](C)CC1)C1CCCCC1 [Example 21.19, 3-(6-{[(1R)-1-cyclobutylethyl]amino}-8-(1-cyclohexylethenyl)-7-[(trans-4-methylcyclohexyl)methyl]-7H-purin-2-yl)-1,2,4-oxadiazol-5(4H)-one]	0.931
C[C@@H](Nc1nc(-c2noc(=O)[nH]2)nc2nc(/C=C/c3ccccc3)n(C[C@H]3CC[C@H](C)CC3)c12)C1CCC1 [Example 21.20, 3-(6-{[(1R)-1-cyclobutylethyl]amino}-7-[(trans-4-methylcyclohexyl)methyl]-8-[(E)-2-phenylethenyl]-7H-purin-2-yl)-1,2,4-oxadiazol-5(4H)-one]	1.89
CC(c1nc2nc(-c3noc(=O)[nH]3)nc(N[C@H](C)C3CCC3)c2n1C[C@H]1CC[C@H](C)CC1)C1CCOCC1 (stereo partly drawn) [Example 21.21, 3-(6-{[(1R)-1-cyclobutylethyl]amino}-7-[(trans-4-methylcyclohexyl)methyl]-8-[1-(tetrahydro-2H-pyran-4-yl)ethyl]-7H-purin-2-yl)-1,2,4-oxadiazol-5(4H)-one]	7.17
C[C@@H](Nc1nc(-c2noc(=O)[nH]2)nc2nc(CCc3ccccc3)n(C[C@H]3CC[C@H](C)CC3)c12)C1CCC1 [Example 21.24, 3-[6-{[(1R)-1-cyclobutylethyl]amino}-7-[(trans-4-methylcyclohexyl)methyl]-8-(2-phenylethyl)-7H-purin-2-yl]-1,2,4-oxadiazol-5(4H)-one]	8.02
C[C@@H](Nc1nc(-c2noc(=O)[nH]2)nc2nc(C3CC3)n(C[C@H]3CC[C@H](C)CC3)c12)C1CCC1 [Example 21.27, 3-(6-{[(1R)-1-cyclobutylethyl]amino}-8-cyclopropyl-7-[(trans-4-methylcyclohexyl)methyl]-7H-purin-2-yl)-1,2,4-oxadiazol-5(4H)-one]	18
C=C(c1ccc(F)cc1)c1nc2nc(-c3noc(=O)[nH]3)nc(N[C@H](C)C3CCC3)c2n1C[C@H]1CC[C@H](C)CC1 [Example 21.30, 3-(6-{[(1R)-1-cyclobutylethyl]amino}-8-[1-(4-fluorophenyl)ethenyl]-7-[(trans-4-methylcyclohexyl)methyl]-7H-purin-2-yl)-1,2,4-oxadiazol-5(4H)-one]	1.84
CC(c1ccc(F)cc1)c1nc2nc(-c3noc(=O)[nH]3)nc(N[C@H](C)C3CCC3)c2n1C[C@H]1CC[C@H](C)CC1 (stereo partly drawn) [Example 21.31, 3-(6-{[(1R)-1-cyclobutylethyl]amino}-8-[1-(4-fluorophenyl)ethyl]-7-[(trans-4-methylcyclohexyl)methyl]-7H-purin-2-yl)-1,2,4-oxadiazol-5(4H)-one]	10.5
C[C@@H](Nc1nc(-c2noc(=O)[nH]2)nc2nc(C3=CCCC3)n(C[C@H]3CC[C@H](C)CC3)c12)C1CCC1 [Example 21.32, 3-(6-{[(1R)-1-cyclobutylethyl]amino}-8-cyclopent-1-en-1-yl-7-[(trans-4-methylcyclohexyl)methyl]-7H-purin-2-yl)-1,2,4-oxadiazol-5(4H)-one]	4.87
C[C@@H](Nc1nc(-c2noc(=O)[nH]2)nc2nc(C3CCCC3)n(C[C@H]3CC[C@H](C)CC3)c12)C1CCC1 [Example 21.34, 3-(6-{[(1R)-1-cyclobutylethyl]amino}-8-cyclopentyl-7-[(trans-4-methylcyclohexyl)methyl]-7H-purin-2-yl)-1,2,4-oxadiazol-5(4H)-one]	7.76
C[C@@H](Nc1nc(-c2noc(=O)[nH]2)nc2nc(C3=CCCCC3)n(C[C@H]3CC[C@H](C)CC3)c12)C1CCC1 [Example 21.37, 3-(6-{[(1R)-1-cyclobutylethyl]amino}-8-cyclohex-1-en-1-yl-7-[(trans-4-methylcyclohexyl)methyl]-7H-purin-2-yl)-1,2,4-oxadiazol-5(4H)-one]	3.79
C[C@@H](Nc1nc(C(=O)O)nc2nc(C3CCCCC3)n(C[C@H]3CC[C@H](C)CC3)c12)C1CCC1 [Example 21.38, 6-{[(1R)-1-cyclobutylethyl]amino}-8-cyclohexyl-7-[(trans-4-methylcyclohexyl)methyl]-7H-purine-2-carboxylic acid]	2.68
C[C@@H](Nc1nc(-c2noc(=O)[nH]2)nc2nc(C3CCCCC3)n(C[C@H]3CC[C@H](C)CC3)c12)C1CCC1 [Example 21.39, 3-(6-{[(1R)-1-cyclobutylethyl]amino}-8-cyclohexyl-7-[(trans-4-methylcyclohexyl)methyl]-7H-purin-2-yl)-1,2,4-oxadiazol-5(4H)-one]	7.87
C[C@@H](Nc1nc(-c2n[nH]c(=O)o2)nc2nc(C3CCCCC3)n(C[C@H]3CC[C@H](C)CC3)c12)C1CCC1 [Example 21.40, 5-(6-{[(1R)-1-cyclobutylethyl]amino}-8-cyclohexyl-7-[(trans-4-methylcyclohexyl)methyl]-7H-purin-2-yl)-1,3,4-oxadiazol-2(3H)-one]	4.29

Same assay, conditions: Table 22; read-out: FRET IC50

SMILES	IC50 [nM]
C[C@@H](Nc1nc(-c2noc(=O)[nH]2)nc2nc(C(=O)C(C)(C)C)n(C[C@H]3CC[C@H](C)CC3)c12)C1CCC1 [Example 22.1, 3-(6-{[(1R)-1-cyclobutylethyl]amino}-8-(2,2-dimethylpropanoyl)-7-[(trans-4-methylcyclohexyl)methyl]-7H-purin-2-yl)-1,2,4-oxadiazol-5(4H)-one]	4.65
C[C@@H](Nc1nc(-c2noc(=O)[nH]2)nc2nc(C(C)(O)C(C)(C)C)n(C[C@H]3CC[C@H](C)CC3)c12)C1CCC1 (stereo partly drawn) [Example 22.2, 3-(6-{[(1R)-1-cyclobutylethyl]amino}-8-(1-hydroxy-1,2,2-trimethylpropyl)-7-[(trans-4-methylcyclohexyl)methyl]-7H-purin-2-yl)-1,2,4-oxadiazol-5(4H)-one]	10.6
C[C@@H](Nc1nc(-c2noc(=O)[nH]2)nc2nc(C3(c4ccccc4F)CC3)n(C[C@H]3CC[C@H](C)CC3)c12)C1CCC1 [Example 22.5, 3-(6-{[(1R)-1-cyclobutylethyl]amino}-8-[1-(2-fluorophenyl)cyclopropyl]-7-[(trans-4-methylcyclohexyl)methyl]-7H-purin-2-yl)-1,2,4-oxadiazol-5(4H)-one]	3.57
C[C@@H](Nc1nc(-c2noc(=O)[nH]2)nc2nc(C3(c4ccccn4)CC3)n(C[C@H]3CC[C@H](C)CC3)c12)C1CCC1 [Example 22.10, 3-[6-{[(1R)-1-cyclobutylethyl]amino}-7-[(trans-4-methylcyclohexyl)methyl]-8-(1-pyridin-2-ylcyclopropyl)-7H-purin-2-yl]-1,2,4-oxadiazol-5(4H)-one]	6.29
C=C(c1nc2nc(-c3noc(=O)[nH]3)nc(N[C@H](C)C3CCC3)c2n1C[C@H]1CC[C@H](C)CC1)C(C)(C)C [Example 22.11, 3-(6-{[(1R)-1-cyclobutylethyl]amino}-8-(2,2-dimethyl-1-methylidenepropyl)-7-[(trans-4-methylcyclohexyl)methyl]-7H-purin-2-yl)-1,2,4-oxadiazol-5(4H)-one]	5.73
C[C@@H](Nc1nc(-c2noc(=O)[nH]2)nc2nc(CC(C)(C)O)n(C[C@H]3CC[C@H](C)CC3)c12)C1CCC1 [Example 22.16, 3-(6-{[(1R)-1-cyclobutylethyl]amino}-8-(2-hydroxy-2-methylpropyl)-7-[(trans-4-methylcyclohexyl)methyl]-7H-purin-2-yl)-1,2,4-oxadiazol-5(4H)-one]	55.6
C[C@@H](Nc1nc(-c2noc(=O)[nH]2)nc2nc(C(=O)c3ccccc3)n(C[C@H]3CC[C@H](C)CC3)c12)C1CCC1 [Example 22.21, 3-[6-{[(1R)-1-cyclobutylethyl]amino}-7-[(trans-4-methylcyclohexyl)methyl]-8-(phenylcarbonyl)-7H-purin-2-yl]-1,2,4-oxadiazol-5(4H)-one]	1
C[C@@H](Nc1nc(-c2n[nH]c(=O)o2)nc2nc(C(=O)c3ccccc3)n(C[C@H]3CC[C@H](C)CC3)c12)C1CCC1 [Example 22.22, 5-[6-{[(1R)-1-cyclobutylethyl]amino}-7-[(trans-4-methylcyclohexyl)methyl]-8-(phenylcarbonyl)-7H-purin-2-yl]-1,3,4-oxadiazol-2(3H)-one]	3.93
C[C@@H](Nc1nc(-c2noc(=O)[nH]2)nc2nc(C(O)c3ccccc3)n(C[C@H]3CC[C@H](C)CC3)c12)C1CCC1 (stereo partly drawn) [Example 22.29, 3-(6-{[(1R)-1-cyclobutylethyl]amino}-8-[hydroxy(phenyl)methyl]-7-[(trans-4-methylcyclohexyl)methyl] -7H-purin-2-yl)-1,2,4-oxadiazol-5(4H)-one]	1.66
